Data from patent publication US7192734B2, “Method of testing for the presence of microorganisms in a gaseous environment comprising hydrogen peroxide” (Millipore Corporation, priority 2002, dated 2007).

What was measured:
microorganisms [1] = details: 1 m^3 air comprising 0.3 ppm sprayed hydrogen peroxide; TSA growth medium
microorganisms [2] = assay: Level of recovery of microorganisms on TSA medium with 1% sodium pyruvate, after impact of air comprising hydrogen peroxide vapour (Examples 3 and 4); assay type: cell-based; details: 1 m^3 air, 8 ppm hydrogen peroxide vapour; TSA + 1% by weight sodium pyruvate
Protocol: Example 1 was reproduced but with the use of 1 m^3 of air comprising 8 ppm (instead of 0.3 ppm) of hydrogen peroxide vapour (instead of sprayed hydrogen peroxide which was impacted, firstly, on a TSA growth medium, then, secondly, on the TSA medium to which 1% by weight of sodium pyruvate was added.
The results obtained are shown in FIG. 2, in which the x-axis represents the nature of the microorganisms and the y-axis represents the level of recovery.
Example 3 was reproduced by sampling 1 m^3 of air comprising 8 ppm of hydrogen peroxide which were impacted, firstly, on the same TSA growth medium to which 1% by weight of sodium pyruvate was added, not sterilized by the action of gamma radiation. Then, secondly, the same test was repeated but, this time, on the same growth medium sterilized by the action of gamma radiation.
The results obtained are shown in FIG. 3, in which the x-axis represents the nature of the microorganisms and the y-axis represents the level of recovery.

[3] = system: Miccrococus luteus ATCC9342; assay: Tolerance in drastic conditions: 100 and 300 ppm hydrogen peroxide, 1% and 5% pyruvate in TSA (Example 5, part 3, Table I); assay type: cell-based, Miccrococcus luteus; details: hydrogen peroxide 300 ppm; pyruvate 5%
Source text: The conditions of Example 3 were reproduced using high concentrations of pyruvate (≧1%), in the presence or absence of hydrogen peroxide in the gaseous environment.
3/ Tolerance of Miccrococcus luteus in drastic conditions, when hydrogen peroxide is raised up to 300 ppm in the gaseous environment and the concentration of pyruvate is up to 5% by weight of agar growth medium.
Miccrococcus luteus growth has been monitored using respectively 100 ppm and 300 ppm of hydrogen peroxide, whereas the concentration of pyruvate by weight of TSA agar growth medium was 1% and 5%.

OO [hydrogen peroxide]
effect on formation of colonies of microorganisms (microorganisms [1]): inhibiting of the formation of the colonies of microorganisms

CC(=O)C(=O)[O-].[Na+] [sodium pyruvate]
formation and counting of colonies of microorganisms (microorganisms [2]): permits the formation and counting of colonies of microorganisms
growth of Miccrococcus luteus [3]: enable growth of Miccrococcus luteus
